Laboratory results as given in ChEMBL document CHEMBL5608208, “Design, synthesis of griseofamine A derivatives and development of potent antibacterial agents against MRSA” (Eur J Med Chem, 2024).
Values after ≈ are worked out from the molar mass of the structure shown.

Experiments:
Assay type in all cases: functional
[1] = system: Staphylococcus aureus; assay: Antibacterial activity against Staphylococcus aureus ATCC 29213 incubated for 18 hrs by serial two-fold dilution method
[2] = system: Staphylococcus epidermidis; assay: Antibacterial activity against Staphylococcus epidermidis ATCC 12228 incubated for 18 hrs by serial two-fold dilution method
[3] = system: Staphylococcus aureus; assay: Antibacterial activity against methicillin resistant Staphylococcus aureus ATCC 33592 incubated for 18 hrs by serial two-fold dilution method
[4] = system: Staphylococcus aureus; assay: Antibacterial activity against methicillin resistant Staphylococcus aureus ATCC 43300 incubated for 18 hrs by serial two-fold dilution method

| SMILES | MIC [1] | MIC [2] | MIC [3] | MIC [4] |
| --- | --- | --- | --- | --- |
| C/C(O)=C1\C(=O)[C@@H]2Cc3c([nH]c4ccccc34)[C@@H](c3ccc(C(F)(F)F)cc3)N2C1=O | 2 µg/mL (≈ 4.69 µM) |  |  |  |
| O=C(OC1=CC(=O)N2[C@H](c3ccc(-c4cc(F)cc(F)c4)cc3)c3[nH]c4ccccc4c3C[C@@H]12)c1ccc(F)cc1 | > 4 µg/mL | > 4 µg/mL | > 4 µg/mL |  |
| O=C(OC1=CC(=O)N2[C@H](c3ccc(-c4cc(F)cc(F)c4)cc3)c3[nH]c4ccccc4c3C[C@@H]12)c1cccs1 | > 4 µg/mL | > 4 µg/mL | > 4 µg/mL |  |
| O=C1CC(=O)N2[C@H](c3ccc(-c4ccc(F)cc4)cc3)c3[nH]c4ccccc4c3C[C@@H]12 | > 4 µg/mL | > 4 µg/mL | > 4 µg/mL |  |
| C/C(O)=C1\C(=O)[C@@H]2Cc3c([nH]c4ccccc34)[C@@H](c3ccc4ccccc4c3)N2C1=O | 8 µg/mL (≈ 19.6 µM) |  |  |  |
| C/C(O)=C1\C(=O)[C@@H]2Cc3c(n(S(=O)(=O)c4ccc(C)cc4)c4ccccc34)[C@@H](c3ccc(-c4ccc(C)cc4)cc3)N2C1=O | 8 µg/mL (≈ 13.3 µM) | 2 µg/mL (≈ 3.32 µM) | 8 µg/mL (≈ 13.3 µM) |  |
| COc1ccc([C@@H]2c3[nH]c4ccccc4c3C[C@H]3C(=O)/C(=C(\C)O)C(=O)N23)cc1 | 4 µg/mL (≈ 10.3 µM) |  |  |  |
| C/C(O)=C1\C(=O)[C@@H]2Cc3c([nH]c4ccccc34)[C@@H](c3ccc(-c4ccc(C(F)(F)F)cc4)o3)N2C1=O | 0.25 µg/mL (≈ 0.508 µM) | 0.25 µg/mL (≈ 0.508 µM) | 0.25 µg/mL (≈ 0.508 µM) | 0.25 µg/mL (≈ 0.508 µM) |
| CC(=O)OC1=CC(=O)N2[C@H](c3ccc(-c4cc(F)cc(F)c4)cc3)c3[nH]c4ccccc4c3C[C@@H]12 | > 4 µg/mL | > 4 µg/mL | > 4 µg/mL |  |
| C/C(O)=C1\C(=O)[C@@H]2Cc3c(n(CC4CC4)c4ccccc34)[C@@H](c3ccc(-c4ccc(F)cc4)cc3)N2C1=O | 0.125 µg/mL (≈ 0.247 µM) | 0.25 µg/mL (≈ 0.494 µM) | 0.125 µg/mL (≈ 0.247 µM) | 0.125 µg/mL (≈ 0.247 µM) |
| O=C1/C(=C(/O)c2ccccc2)C(=O)N2[C@H](c3ccc(-c4cc(F)cc(F)c4)cc3)c3[nH]c4ccccc4c3C[C@@H]12 | 0.25 µg/mL (≈ 0.469 µM) | 0.25 µg/mL (≈ 0.469 µM) | 0.125 µg/mL (≈ 0.235 µM) | 0.125 µg/mL (≈ 0.235 µM) |
| CC/C(O)=C1\C(=O)[C@@H]2Cc3c([nH]c4ccccc34)[C@@H](c3ccc(-c4cc(F)cc(F)c4)cc3)N2C1=O | 0.063 µg/mL (≈ 0.13 µM) | 0.125 µg/mL (≈ 0.258 µM) | 0.063 µg/mL (≈ 0.13 µM) | 0.063 µg/mL (≈ 0.13 µM) |
| C/C(O)=C1\C(=O)[C@@H]2Cc3c([nH]c4ccccc34)[C@@H](c3ccc(-c4ccc(C(F)(F)F)cc4)cc3)N2C1=O | 0.063 µg/mL (≈ 0.125 µM) | 0.063 µg/mL (≈ 0.125 µM) | 0.25 µg/mL (≈ 0.498 µM) |  |
| C/C(O)=C1\C(=O)[C@@H]2Cc3c(n(S(=O)(=O)c4ccc(C)cc4)c4ccccc34)[C@@H](c3ccc(-c4ccc(F)cc4)cc3)N2C1=O | 2 µg/mL (≈ 3.3 µM) | 0.25 µg/mL (≈ 0.412 µM) | 2 µg/mL (≈ 3.3 µM) |  |
| C/C(O)=C1\C(=O)[C@@H]2Cc3c([nH]c4ccccc34)[C@@H](c3cccc(F)c3)N2C1=O | 8 µg/mL (≈ 21.3 µM) |  |  |  |
| C/C(N)=C1\C(=O)[C@@H]2Cc3c([nH]c4ccccc34)[C@@H](c3ccc(-c4ccc(OC(F)(F)F)cc4)cc3)N2C1=O | 4 µg/mL (≈ 7.73 µM) | 4 µg/mL (≈ 7.73 µM) | 4 µg/mL (≈ 7.73 µM) |  |
| C/C(O)=C1\C(=O)[C@@H]2Cc3c([nH]c4ccccc34)[C@@H](c3ccc(-c4cccc(F)c4)cc3)N2C1=O | 0.125 µg/mL (≈ 0.276 µM) | 0.25 µg/mL (≈ 0.553 µM) | 0.25 µg/mL (≈ 0.553 µM) |  |
| C/C(O)=C1\C(=O)[C@@H]2Cc3c([nH]c4ccccc34)[C@H](c3ccccc3)N2C1=O | 16 µg/mL (≈ 44.6 µM) |  |  |  |
| C/C(O)=C1\C(=O)[C@@H]2Cc3c([nH]c4ccccc34)[C@@H](c3ccc(F)cc3F)N2C1=O | 8 µg/mL (≈ 20.3 µM) |  |  |  |
| O=C1CC(=O)N2[C@H](c3ccc(-c4ccc(C(F)(F)F)cc4)cc3)c3[nH]c4ccccc4c3C[C@@H]12 | > 4 µg/mL | 4 µg/mL (≈ 8.69 µM) | > 4 µg/mL |  |
| Cc1ccc(/C(O)=C2\C(=O)[C@@H]3Cc4c([nH]c5ccccc45)[C@@H](c4ccc(-c5cc(F)cc(F)c5)cc4)N3C2=O)cc1 | 0.5 µg/mL (≈ 0.915 µM) | 0.25 µg/mL (≈ 0.457 µM) | 0.5 µg/mL (≈ 0.915 µM) |  |
| C/C(O)=C1\C(=O)[C@@H]2Cc3c([nH]c4ccccc34)[C@@H](c3ccc(-c4cccc(C(F)(F)F)c4)cc3)N2C1=O | 0.5 µg/mL (≈ 0.995 µM) | 0.063 µg/mL (≈ 0.125 µM) | 0.5 µg/mL (≈ 0.995 µM) |  |
| C/C(O)=C1\C(=O)[C@@H]2Cc3c([nH]c4ccccc34)[C@@H](c3ccc(-c4ccc(F)cc4)cc3)N2C1=O | 0.063 µg/mL (≈ 0.139 µM) | 0.125 µg/mL (≈ 0.276 µM) | 0.125 µg/mL (≈ 0.276 µM) |  |
| C/C(O)=C1\C(=O)[C@@H]2Cc3c([nH]c4ccccc34)[C@@H](c3ccccc3)N2C1=O | 8 µg/mL (≈ 22.3 µM) |  |  |  |
| C/C(O)=C1\C(=O)[C@@H]2Cc3c([nH]c4ccccc34)[C@@H](c3ccc(C)cc3)N2C1=O | 4 µg/mL (≈ 10.7 µM) |  |  |  |

| SMILES | MIC [1] | MIC [2] | MIC [3] | MIC [4] |
| --- | --- | --- | --- | --- |
| O=C(OC1=CC(=O)N2[C@H](c3ccc(-c4cc(F)cc(F)c4)cc3)c3[nH]c4ccccc4c3C[C@@H]12)c1ccc2ccccc2c1 | 4 µg/mL (≈ 6.87 µM) | > 4 µg/mL | 2 µg/mL (≈ 3.43 µM) |  |
| C/C(O)=C1\C(=O)[C@@H]2Cc3c([nH]c4ccccc34)[C@@H](c3ccc(C(C)(C)C)cc3)N2C1=O | 4 µg/mL (≈ 9.65 µM) |  |  |  |
| C/C(O)=C1\C(=O)[C@@H]2Cc3c([nH]c4ccccc34)CN2C1=O | 128 µg/mL (≈ 453 µM) |  |  |  |
| C/C(N)=C1\C(=O)[C@@H]2Cc3c([nH]c4ccccc34)[C@@H](c3ccc(-c4ccccc4)cc3)N2C1=O | > 4 µg/mL | > 4 µg/mL | > 4 µg/mL |  |
| C/C(O)=C1\C(=O)[C@@H]2Cc3c([nH]c4ccccc34)[C@@H](c3ccc(F)cc3)N2C1=O | 4 µg/mL (≈ 10.6 µM) |  |  |  |
| O=C1CC(=O)N2[C@H](c3ccc(-c4cc(F)cc(F)c4)cc3)c3[nH]c4ccccc4c3C[C@@H]12 | > 4 µg/mL | > 4 µg/mL | 4 µg/mL (≈ 9.34 µM) |  |
| O=C1/C(=C(/O)c2ccc(F)cc2)C(=O)N2[C@H](c3ccc(-c4cc(F)cc(F)c4)cc3)c3[nH]c4ccccc4c3C[C@@H]12 | 0.5 µg/mL (≈ 0.908 µM) | 0.5 µg/mL (≈ 0.908 µM) | 0.5 µg/mL (≈ 0.908 µM) |  |
| C/C(O)=C1\C(=O)[C@@H]2Cc3c([nH]c4ccccc34)[C@@H](c3ccc(-c4cc(F)c(F)c(F)c4)cc3)N2C1=O | 0.5 µg/mL (≈ 1.02 µM) | 1 µg/mL (≈ 2.05 µM) | 1 µg/mL (≈ 2.05 µM) |  |
| C/C(O)=C1\C(=O)[C@@H]2Cc3c([nH]c4ccccc34)[C@H](c3cccc(F)c3)N2C1=O | 32 µg/mL (≈ 85 µM) |  |  |  |
| COc1ccc([C@H]2c3[nH]c4ccccc4c3C[C@H]3C(=O)/C(=C(\C)O)C(=O)N23)cc1 | 8 µg/mL (≈ 20.6 µM) |  |  |  |
| O=C1/C(=C(/O)c2ccc3ccccc3c2)C(=O)N2[C@H](c3ccc(-c4cc(F)cc(F)c4)cc3)c3[nH]c4ccccc4c3C[C@@H]12 | 4 µg/mL (≈ 6.87 µM) | 2 µg/mL (≈ 3.43 µM) | 2 µg/mL (≈ 3.43 µM) |  |
| COC(=O)[C@@H]1Cc2c([nH]c3ccccc23)[C@@H](C)N1 | > 128 µg/mL |  |  |  |
| C/C(O)=C1\C(=O)[C@@H]2Cc3c([nH]c4ccccc34)[C@@H](C)N2C1=O | > 128 µg/mL |  |  |  |
| CCC(=O)OC1=CC(=O)N2[C@H](c3ccc(-c4cc(F)cc(F)c4)cc3)c3[nH]c4ccccc4c3C[C@@H]12 | > 4 µg/mL | > 4 µg/mL | > 4 µg/mL |  |
| Cc1ccc(C(=O)OC2=CC(=O)N3[C@H](c4ccc(-c5cc(F)cc(F)c5)cc4)c4[nH]c5ccccc5c4C[C@@H]23)cc1 | > 4 µg/mL | > 4 µg/mL | > 4 µg/mL |  |
| C/C(O)=C1\C(=O)[C@@H]2Cc3c(n(C)c4ccccc34)[C@@H](c3ccc(-c4ccc(F)cc4)cc3)N2C1=O | 0.25 µg/mL (≈ 0.536 µM) | 0.063 µg/mL (≈ 0.135 µM) | 0.5 µg/mL (≈ 1.07 µM) |  |
| CC[C@@H]1c2[nH]c3ccccc3c2C[C@H]2C(=O)/C(=C(\C)O)C(=O)N12 | > 128 µg/mL |  |  |  |
| C/C(O)=C1\C(=O)[C@@H]2Cc3c([nH]c4ccccc34)[C@@H](c3ccc(-c4ccccc4C)cc3)N2C1=O | 0.125 µg/mL (≈ 0.279 µM) | 0.5 µg/mL (≈ 1.11 µM) | 0.25 µg/mL (≈ 0.557 µM) |  |
| O=C1CC(=O)N2[C@H](c3ccc(-c4ccc(OC(F)(F)F)cc4)cc3)c3[nH]c4ccccc4c3C[C@@H]12 | > 4 µg/mL | > 4 µg/mL | > 4 µg/mL |  |
| O=C(OC1=CC(=O)N2[C@H](c3ccc(-c4cc(F)cc(F)c4)cc3)c3[nH]c4ccccc4c3C[C@@H]12)c1ccccc1 | > 4 µg/mL | > 4 µg/mL | > 4 µg/mL |  |
| C/C(O)=C1\C(=O)[C@@H]2Cc3c([nH]c4ccccc34)[C@@H](c3ccc(-c4cc(C(F)(F)F)cc(C(F)(F)F)c4)cc3)N2C1=O | 1 µg/mL (≈ 1.75 µM) | 1 µg/mL (≈ 1.75 µM) | 1 µg/mL (≈ 1.75 µM) |  |
| C/C(O)=C1\C(=O)[C@@H]2Cc3c([nH]c4ccccc34)[C@@H](Cc3ccccc3)N2C1=O | 32 µg/mL (≈ 85.9 µM) |  |  |  |
| C/C(O)=C1\C(=O)[C@@H]2Cc3c([nH]c4ccccc34)[C@H](c3ccc(C(F)(F)F)cc3)N2C1=O | 16 µg/mL (≈ 37.5 µM) |  |  |  |
| C/C(O)=C1\C(=O)[C@@H]2Cc3c([nH]c4ccccc34)[C@@H](c3ccccn3)N2C1=O | 64 µg/mL (≈ 178 µM) |  |  |  |
